Test results reported in the NIST ThermoML archive (doi:10.1021/je8004613).
Numbers after ± are expanded uncertainties.

What was measured:
[1] = 101.33 kPa, Liquid; for speed of sound: Pulse-echo method; for mass density: Vibrating tube method
[2] = excess molar enthalpy (molar enthalpy of mixing); xn = mol fraction of the nth substance listed; conditions: 298.15 K, 101 kPa, Liquid

Q: Which speed of sound ([1]; 288.15 K) does the source give for `CCCCCCCC` [octane] here?
A: 1213.6 ± 1 m/s

Q: What about the mass density ([1]; 288.15 K) of the same molecule?
A: 706.58 ± 0.23 kg/m3

Q: And the speed of sound ([1]; 293.15 K)?
A: 1193 ± 1 m/s

Q: What about the mass density ([1]; 293.15 K) of the same molecule?
A: 702.57 ± 0.23 kg/m3

Q: What about the speed of sound ([1]; 298.15 K) of the same molecule?
A: 1171.9 ± 1 m/s

Q: And the mass density ([1]; 298.15 K)?
A: 698.55 ± 0.23 kg/m3

Q: And the speed of sound ([1]; 303.15 K)?
A: 1151 ± 1 m/s

Q: And the mass density ([1]; 303.15 K)?
A: 694.48 ± 0.23 kg/m3

Q: And the speed of sound ([1]; 308.15 K)?
A: 1130.3 ± 1 m/s

Q: And the mass density ([1]; 308.15 K)?
A: 690.42 ± 0.23 kg/m3

Q: For `CCCCCCCC` [octane] + CCCCO, which excess molar enthalpy ([2]; x2 = 0.03632) is on record?
A: 0.0772 ± 0.00167 kcal/mol

Q: And the excess molar enthalpy ([2]; x2 = 0.0645)?
A: 0.102 ± 0.00191 kcal/mol

Q: What about the excess molar enthalpy ([2]; x2 = 0.1182) of the same molecule?
A: 0.128 ± 0.00239 kcal/mol

Q: And the excess molar enthalpy ([2]; x2 = 0.1568)?
A: 0.137 ± 0.00239 kcal/mol

Q: And the excess molar enthalpy ([2]; x2 = 0.2031)?
A: 0.152 ± 0.00263 kcal/mol

Q: What about the excess molar enthalpy ([2]; x2 = 0.2488) of the same molecule?
A: 0.158 ± 0.00287 kcal/mol

Q: What about the excess molar enthalpy ([2]; x2 = 0.299) of the same molecule?
A: 0.163 ± 0.00287 kcal/mol

Q: What about the excess molar enthalpy ([2]; x2 = 0.345) of the same molecule?
A: 0.164 ± 0.00287 kcal/mol

Q: And the excess molar enthalpy ([2]; x2 = 0.4028)?
A: 0.163 ± 0.00287 kcal/mol

Q: What about the excess molar enthalpy ([2]; x2 = 0.4499) of the same molecule?
A: 0.16 ± 0.00287 kcal/mol

Q: And the excess molar enthalpy ([2]; x2 = 0.5029)?
A: 0.152 ± 0.00263 kcal/mol

Q: What about the excess molar enthalpy ([2]; x2 = 0.6034) of the same molecule?
A: 0.134 ± 0.00239 kcal/mol

Q: And the excess molar enthalpy ([2]; x2 = 0.6988)?
A: 0.112 ± 0.00215 kcal/mol

Q: What about the excess molar enthalpy ([2]; x2 = 0.7979) of the same molecule?
A: 0.0817 ± 0.00167 kcal/mol

Q: What about the excess molar enthalpy ([2]; x2 = 0.9005) of the same molecule?
A: 0.0435 ± 0.0012 kcal/mol

Q: And the excess molar enthalpy ([2]; x2 = 0.9493)?
A: 0.0225 ± 0.000717 kcal/mol
